Laboratory results: patent US20190183908A1 (priority 2016, published 2019)
“Also recorded” adds a separate entry of the source.

Assays:
UV irradiated mice = test system: UV irradiated mice; set-up: species or system C57BL/6 mice; details: mouse, in vivo
[1] = test system: nitrogen mustard exposed mice; details: mouse, in vivo, ip; cited from earlier work
[2] = test system: LC3 in CD206+ macrophages; set-up: species or system mice; details: mouse, in vivo
CD206+ M2 macrophages = test system: CD206+ M2 macrophages; set-up: species or system mice; details: mouse, in vivo
TNF-α [3] = test system: TNF-α; set-up: species or system mice; details: mouse, in vivo
MMP9 = test system: MMP9; set-up: species or system mice; details: mouse, in vivo
M2:M1 macrophage ratio = test system: M2:M1 macrophage ratio; set-up: species or system mice; details: mouse, in vivo
Arginase1 = test system: Arginase1; set-up: species or system mice; details: mouse, in vivo
iNOS [4] = test system: iNOS; set-up: species or system mice; details: mouse, in vivo
[5] = test system: LC3 in F4/80+ macrophages; set-up: species or system mice; details: mouse, in vivo
UV induced apoptosis = details: mouse, in vivo
Valchlor-exposed skin [6] = details: human, in vivo
TNF-α [7] = test system: TNF-α; set-up: species or system human; details: in vivo, po
arginase-1 = test system: arginase-1; set-up: species or system human; details: in vivo
iNOS [8] = test system: iNOS; set-up: species or system human; details: in vivo, po
[9] = test system: LC3 in CD163+ macrophages; set-up: species or system human; details: in vivo, po
COX-2 = test system: COX-2; set-up: species or system human; details: in vivo, po
Valchlor-exposed skin [10] = test system: Valchlor-exposed skin; set-up: species or system human; details: in vivo
IL-6 = test system: IL-6; set-up: species or system human; details: in vivo, po
[11] = test system: UVR-irradiated skin of healthy adults; set-up: species or system human; details: in vivo
[12] = test system: UVR-irradiated skin of healthy adults; set-up: species or system human; details: in vivo; remark: listed apart in the source
[13] = test system: UVR-irradiated skin of healthy adults; type: in vivo, human; details: N=4
Valchlor-exposed skin [14] = type: in vivo, human
TNF-α [15] = test system: TNF-α; set-up: species or system human; details: in vivo, po; remark: listed apart in the source

Molecule: 25(OH)D
- Skin inflammation, wound progression and histological architecture (UV irradiated mice; ip): prevented excessive cutaneous damage; also recorded: delayed skin inflammation, arrested skin wound progression and accelerated wound repair; also recorded: protects from UV induced necrosis, dyskeratosis and vacuolation of the basal layer
- Acute skin and systemic inflammation, tissue damage and mortality [1]: sufficient to prevent acute skin and systemic inflammation and rescue mice from extensive tissue damage and mortality
- LC3+CD206+ cells in the dermis [2]: significantly increased number of cells
- M2 macrophages (CD206+) relative to M1 (CD206+ M2 macrophages): more M2 cells co-localizing with LC3; also recorded: expands the M2 compared to M1
- Gene expression of TNF (TNF-α) (TNF-α [3]): sustained inhibition; also recorded: significantly suppressed; also recorded: suppresses
- Gene expression of MMP9 (MMP9): sustained inhibition; also recorded: significantly suppressed; also recorded: suppresses
- M2:M1 ratio (M2:M1 macrophage ratio): significantly altered
- M2:M1 ratio in presence or absence of VD (M2:M1 macrophage ratio): comparable
- arg1 staining in CD206+ cells (Arginase1): selectively stain for arg1 in CD206+ cells
- Gene expression of iNOS (NOS2) (iNOS [4]): significantly suppressed; also recorded: suppresses
- Elevation of macrophage-specific autophagy (LC3 punctae) compared to UV induced autophagy [5]: 5 fold
- UV mediated apoptotic cell death (TUNEL+ cells) (UV induced apoptosis): significantly diminished

Molecule: Cn1cnc(N)c2ncnc1-2 [3-MA, 3-methyladenine]
- UV-induced inflammation / VD mediated protection under blockade of autophagy (UV irradiated mice): exacerbated UV-induced inflammation; also recorded: reversed VD mediated protection from inflammation
- LC3 expression in skin under inhibition of autophagy [2]: abolished LC3 expression
- M2 macrophages / cellular profile under blockade of autophagy (CD206+ M2 macrophages): depleted functional M2 macrophages; also recorded: recapitulates cellular profile observed with UV while quenching LC3 expression
- TNF-α under blockade of autophagy (TNF-α [3]): increasing
- MMP9 under blockade of autophagy (MMP9): increasing
- arg1 expression in CD206+ cells under inhibition of autophagy (Arginase1): diminished arg1 expression
- UV induced and VD induced autophagy [5]: inhibited

Molecule: C=C1CC[C@H](O)C/C1=C/C=C1\CCC[C@]2(C)[C@@H]([C@H](C)CCCC(C)C)CC[C@@H]12 [vitamin D3, cholecalciferol]
- Net skin symptom Irritation, Day 0 (Valchlor-exposed skin [6]): 1.0
- Net skin symptom Irritation, Day 1 (Valchlor-exposed skin [6]): 0.5
- Net skin symptom Irritation, Day 2 (Valchlor-exposed skin [6]): 1.1
- Net skin symptom Irritation, Day 3 (Valchlor-exposed skin [6]): 0.8
- Net skin symptom Irritation, Day 4 (Valchlor-exposed skin [6]): 0.5
- Net skin symptom Irritation, Day 5 (Valchlor-exposed skin [6]): 0.1
- Net skin symptom Irritation, Day 6 (Valchlor-exposed skin [6]): −0.2
- Net skin symptom Irritation, Slope (Valchlor-exposed skin [6]): −0.1202 ± 0.05
- Net skin symptom Warmth, Day 0 (Valchlor-exposed skin [6]): 1.0
- Net skin symptom Warmth, Day 1 (Valchlor-exposed skin [6]): 0.5
- Net skin symptom Warmth, Day 2 (Valchlor-exposed skin [6]): −0.2
- Net skin symptom Warmth, Day 3 (Valchlor-exposed skin [6]): 0.0
- Net skin symptom Warmth, Day 4 (Valchlor-exposed skin [6]): −1.0
- Net skin symptom Warmth, Day 5 (Valchlor-exposed skin [6]): 0.3
- Net skin symptom Warmth, Day 6 (Valchlor-exposed skin [6]): −0.3
- Net skin symptom Warmth, Slope (Valchlor-exposed skin [6]): −0.1296 + 0.083
- Patient reported skin symptoms (warmth, irritation) (Valchlor-exposed skin [6]): demonstrable reduction; also recorded: decreased
- Skin pain, burning sensation, and itch (Valchlor-exposed skin [6]): no observable difference
- Reduction in TNF-α (TNF-α [7]): 66%
- Arginase-1 protein expression localized to CD163+ macrophages (arginase-1): increased expression
- Skin expression of iNOS compared to placebo (iNOS [8]): reduced expression; also recorded: lower
- LC3 co-localized with CD163+ macrophages in human skin [9]: upregulates cells that co-localize LC and CD163; also recorded: enhanced LC3
- Reduction in COX-2 (COX-2): 80%
- Skin thickness (arm 2 − arm 1) compared to placebo (Valchlor-exposed skin [10]): trend in decreasing thickness; also recorded: reduction in skin thickness
- Reduction in IL-6 (IL-6): 112%
- Histologic structural damage (epidermal vesiculation, edema formation) [11]: improved
- Skin thickness after irradiation with higher doses [12]: trend for decreased skin thickness
- Erythema Δa*24 hr, Mean (95% CI) [13]: 2.0 (−2.1.6.1)
- Reduction in skin vesication on histology (Valchlor-exposed skin [14]; in vivo, po): 50%
- Vesication by histology (Valchlor-exposed skin [14]; n=2): 0%
- Skin expression of TNF-α compared to placebo (TNF-α [15]): reduced expression; also recorded: lower
